Laboratory results from US20150065544A1, “THERAPEUTIC AGENT AND PREVENTIVE AGENT FOR DEMYELINATING DISEASE” (OSAKA UNIVERSITY, priority 2011, published 2015).

What was measured:
[1] = tested on: mouse experimental autoimmune encephalomyelitis (EAE) models; assay: Clinical symptom scores in mouse experimental autoimmune encephalomyelitis (EAE) model; format: in vivo, mouse (SJL/J); conditions: Day 10 to Day 44 after immunization, versus tap water group 1, FIG. 1
Protocol: In mouse experimental autoimmune encephalomyelitis (EAE) models, which are MS animal models, the effects of 2-(3-cyano-4-isobutyloxyphenyl)-4-methyl-5-thiazolecarboxylic acid (Compound A) were investigated. Proteolipid protein (PLP) and complete Freund's adjuvant were administered subcutaneously to 8-week-old female SJL/J mice for immunization to induce EAE. The animals were divided into 3 groups; tap water, 1.5 mg/kg/day of Compound A and 0.75 mg/kg/day of Compound A were administered to the first, second and third group, respectively, by administration in drinking water from Day 10 to Day 44 after the immunization day. Neurological symptoms in the extremities were monitored daily from the day of immunization to Day 44 post-immunization, and the observations were scored as clinical symptoms (Vsevolod Smolianov, et al., Alteration of T cell cytokine production in PLPp-139-151-induced EAE in SJL mice by animmunostimulatory CpG Oligonucleotide. Journal of Neuroinflammation 2011, 8:59).

[2] = tested on: mouse experimental autoimmune encephalomyelitis (EAE) models; assay: Histopathological examination of spinal cord tissues of EAE mice; format: in vivo, mouse (SJL/J); conditions: Day 16 post-immunization

SMILES: Cc1nc(-c2ccc(OCC(C)C)c(C#N)c2)sc1C(=O)O [Compound A, 2-(3-cyano-4-isobutyloxyphenyl)-4-methyl-5-thiazolecarboxylic acid]
- Clinical symptoms of EAE (neurological symptom scores) ([1]; group 2: 1.5 mg/kg/day in drinking water): suppressed
- Clinical symptoms of EAE (neurological symptom scores) ([1]; group 3: 0.75 mg/kg/day in drinking water): suppressed
- Inflammation in the spinal cord tissues (iNOS-positive cells, activated macrophages, activation of astrocytes) ([2]; conclusion from FIG. 2): suppressed inflammation in the tissues
- Staining of inducible nitric oxide synthase (iNOS), macrophages and astrocytes in spinal cord tissues ([2]; group 3: 0.75 mg/kg/day, versus tap water group 1, FIG. 2): weak
